Laboratory results published in PubChem BioAssay AID268 (DTP/NCI, 2004).
Several values for one entry are separate records, joined by “and”; a condition that tells them apart may be missing. Equal entries are not always repeated.

Tested on: CD2F1 mice, P1798 lymphosarcoma sc, tumor weight T/C
Test: NCI In Vivo Anticancer Drug Screen. Data for tumor model P1798 Lymphosarcoma (subcutaneous) in CD2F1 (CDF1) mice
Conditions: endpoint: mean tumor weight, higher = larger tumour
Experimental: The antitumor activity of compounds was measured in mice bearing transplantable tumors. Survival or tumor size were measured and the results are expressed as the measurement made in the treated group (T) divided by the measurement made in the vehicle treated control group (C). The tumor model used in this assay is P1798 Lymphosarcoma (subcutaneous) in CD2F1 (CDF1) mice

[1] = dose: 0.63 mg/kg/injection, schedule: Q01DX010 (ip), vehicle: saline
[2] = dose: 1.25 mg/kg/injection, schedule: Q01DX010 (ip), vehicle: saline
[3] = dose: 2.5 mg/kg/injection, schedule: Q01DX010 (ip), vehicle: saline
[4] = dose: 5.0 mg/kg/injection, schedule: Q01DX010 (ip), vehicle: saline
[5] = dose: 0.8 mg/kg/injection, schedule: Q01DX011 (ip), vehicle: carboxymethylcellulose (CMC)
[6] = dose: 50.0 mg/kg/injection, schedule: Q01DX010 (ip), vehicle: saline
[7] = dose: 100.0 mg/kg/injection, schedule: Q01DX010 (ip), vehicle: saline
[8] = dose: 200.0 mg/kg/injection, schedule: Q01DX010 (ip), vehicle: saline
[9] = dose: 400.0 mg/kg/injection, schedule: Q01DX010 (ip), vehicle: saline
[10] = dose: 25.0 mg/kg/injection, schedule: Q01DX010 (ip), vehicle: saline
[11] = dose: 20.0 mg/kg/injection, schedule: Q01DX010 (ip), vehicle: saline
[12] = dose: 40.0 mg/kg/injection, schedule: Q01DX010 (ip), vehicle: saline
[13] = dose: 10.0 mg/kg/injection, schedule: Q01DX010 (ip), vehicle: saline

C[C@]12CCC(=O)C=C1CC[C@@H]1[C@@H]2[C@@H](O)C[C@@]2(C)[C@H]1CC[C@]2(O)C(=O)CO was tested, and the T/C (dose: 12.5 mg/kg/injection, schedule: Q01DX005 (sc), vehicle: steriod suspending solution) was 51 % of control, the T/C (dose: 12.5 mg/kg/injection, schedule: Q02DX010 (sc), vehicle: steriod suspending solution) was 105 % of control and the T/C (dose: 25.0 mg/kg/injection, schedule: Q01DX005 (sc), vehicle: steriod suspending solution) was 15 % of control. The T/C (dose: 25.0 mg/kg/injection, schedule: Q02DX010 (sc), vehicle: steriod suspending solution) was 105 % of control, the T/C (dose: 50.0 mg/kg/injection, schedule: Q01DX005 (sc), vehicle: steriod suspending solution) was 7 % of control and the T/C (dose: 50.0 mg/kg/injection, schedule: Q02DX010 (sc), vehicle: steriod suspending solution) was 110 % of control. For the same compound, the T/C (dose: 100.0 mg/kg/injection, schedule: Q01DX005 (sc), vehicle: steriod suspending solution) was 1 % of control.

CN[C@H]1CCc2cc(OC)c(OC)c(OC)c2-c2ccc(OC)c(=O)cc21 was tested, and the T/C (dose: 0.63 mg/kg/injection, schedule: Q01DX010 (ip), vehicle: other) was 108 % of control, the T/C [1] was 59 % of control and the T/C (dose: 1.25 mg/kg/injection, schedule: Q01DX010 (ip), vehicle: other) was 116 % of control. The T/C [2] was 82 % of control, the T/C (dose: 2.5 mg/kg/injection, schedule: Q01DX010 (ip), vehicle: other) was 112 % of control and the T/C [3] was 57 % of control. For the same compound, the T/C (dose: 5.0 mg/kg/injection, schedule: Q01DX010 (ip), vehicle: other) was 96 % of control and the T/C [4] was 32 % of control.

In the case of CCCSc1ncnc2nc[nH]c12, the T/C (dose: 125.0 mg/kg/injection, schedule: Q01DX010 (ip), vehicle: saline) is reported as 21 % of control.

For CC(=O)OC(C)(C)/C=C/C(=O)[C@](C)(O)[C@H]1[C@H](O)C[C@@]2(C)[C@@H]3CC=C4[C@@H](C[C@H](O)C(=O)C4(C)C)[C@]3(C)C(=O)C[C@]12C, the T/C (dose: 0.1 mg/kg/injection, schedule: Q01DX009 (ip), vehicle: saline) was 99 % of control, the T/C (dose: 0.16 mg/kg/injection, schedule: Q01DX010 (ip), vehicle: saline) was 71 % of control and the T/C (dose: 0.2 mg/kg/injection, schedule: Q01DX009 (ip), vehicle: saline) was 68 % of control. For the same compound, the T/C (dose: 0.2 mg/kg/injection, schedule: Q01DX011 (ip), vehicle: carboxymethylcellulose (CMC)) was 106 % of control, the T/C (dose: 0.25 mg/kg/injection, schedule: Q01DX010 (ip), vehicle: saline) was 70 % of control and the T/C (dose: 0.3 mg/kg/injection, schedule: Q01DX011 (ip), vehicle: carboxymethylcellulose (CMC)) was 56 % of control. The T/C (dose: 0.38 mg/kg/injection, schedule: Q01DX010 (ip), vehicle: saline) was 70 % of control, the T/C (dose: 0.4 mg/kg/injection, schedule: Q01DX009 (ip), vehicle: saline) was 77 % of control and the T/C (dose: 0.57 mg/kg/injection, schedule: Q01DX010 (ip), vehicle: saline) was 62 % of control. The T/C (dose: 0.6 mg/kg/injection, schedule: Q01DX011 (ip), vehicle: carboxymethylcellulose (CMC)) was 82 % of control and the T/C [5] was 11 % of control.

With Nc1nc2n[nH]nc2c(=O)[nH]1 the T/C (dose: 25.0 mg/kg/injection, schedule: Q01DX010 (ip), vehicle: alkali diluted with saline) was 119 % of control, the T/C (dose: 50.0 mg/kg/injection, schedule: Q01DX010 (ip), vehicle: alkali diluted with saline) was 64 % of control and the T/C (dose: 100.0 mg/kg/injection, schedule: Q01DX010 (ip), vehicle: alkali diluted with saline) was 42 % of control and 49 % of control. The T/C (dose: 200.0 mg/kg/injection, schedule: Q01DX010 (ip), vehicle: alkali diluted with saline) was 15 % of control and 29 % of control and the T/C (dose: 400.0 mg/kg/injection, schedule: Q01DX010 (ip), vehicle: alkali diluted with saline) was 2 % of control.

CC/C(=C(/CC)c1ccc(O)cc1)c1ccc(O)cc1 was tested, and the T/C (dose: 6.25 mg/kg/injection, schedule: Q01DX010 (sc), vehicle: steriod suspending solution) was 91 % of control and 96 % of control and the T/C (dose: 100.0 mg/kg/injection, schedule: Q01DX010 (sc), vehicle: steriod suspending solution) was 22 % of control and 45 % of control.

In the case of CC(=O)NCCCCCCCCCCNC(C)=O, the T/C [6] is reported as 96 % of control, the T/C [7] is reported as 113 % of control and the T/C [8] is reported as 93 % of control. The T/C [9] was 76 % of control.

With NC(=O)n1cccn1 the T/C [10] was 84 % of control, the T/C [6] was 75 % of control and the T/C [7] was 71 % of control. For the same compound, the T/C [8] was 45 % of control.

With O[C@H](CN1CC1)[C@@H](O)CN1CC1 the T/C (dose: 62.5 micrograms/kg/injection, schedule: Q01DX010 (ip), vehicle: saline) was 76 % of control, the T/C (dose: 125.0 micrograms/kg/injection, schedule: Q01DX010 (ip), vehicle: saline) was 62 % of control and the T/C (dose: 250.0 micrograms/kg/injection, schedule: Q01DX010 (ip), vehicle: saline) was 45 % of control. For the same compound, the T/C (dose: 500.0 micrograms/kg/injection, schedule: Q01DX010 (ip), vehicle: saline) was 31 % of control.

With O=C1NC2C(NC(=O)N2Cl)N1Cl (configuration not stated) the T/C [11] was 80 % of control, the T/C [12] was 90 % of control and the T/C (dose: 80.0 mg/kg/injection, schedule: Q01DX010 (ip), vehicle: saline) was 76 % of control.

For COc1cc([C@@H]2c3cc4c(cc3[C@H](O)[C@H]3COC(=O)[C@H]23)OCO4)cc(OC)c1OC, the T/C (dose: 0.9 mg/kg/injection, schedule: Q01DX011 (ip), vehicle: carboxymethylcellulose (CMC)) was 56 % of control, the T/C (dose: 1.7 mg/kg/injection, schedule: Q01DX011 (ip), vehicle: carboxymethylcellulose (CMC)) was 111 % of control and the T/C (dose: 2.2 mg/kg/injection, schedule: Q01DX011 (ip), vehicle: carboxymethylcellulose (CMC)) was 80 % of control.

With Oc1cc(CN(CCCl)CCCl)c(O)cc1CN(CCCl)CCCl the T/C [1] was 71 % of control and 86 % of control, the T/C [2] was 64 % of control and 88 % of control and the T/C [3] was 42 % of control and 64 % of control.

For Cn1cnc([N+](=O)[O-])c1Sc1nc(N)nc2nc[nH]c12, the T/C [3] was 69 % of control, the T/C [4] was 75 % of control and the T/C [13] was 57 % of control. The T/C [11] was 54 % of control.

For CC(=O)OC(C)(C)/C=C/C(=O)[C@](C)(O)[C@H]1[C@H](O)C[C@@]2(C)[C@@H]3CC=C4[C@@H](C=C(O)C(=O)C4(C)C)[C@]3(C)C(=O)C[C@]12C, the T/C (dose: 0.15 mg/kg/injection, schedule: Q01DX009 (ip), vehicle: saline with Tween-80) was 100 % of control, the T/C (dose: 0.3 mg/kg/injection, schedule: Q01DX009 (ip), vehicle: saline with Tween-80) was 84 % of control and the T/C (dose: 0.4 mg/kg/injection, schedule: Q01DX011 (ip), vehicle: carboxymethylcellulose (CMC)) was 84 % of control. The T/C (dose: 0.6 mg/kg/injection, schedule: Q01DX009 (ip), vehicle: saline with Tween-80) was 92 % of control, the T/C [5] was 95 % of control and the T/C (dose: 1.6 mg/kg/injection, schedule: Q01DX011 (ip), vehicle: carboxymethylcellulose (CMC)) was 115 % of control. For the same compound, the T/C (dose: 3.2 mg/kg/injection, schedule: Q01DX011 (ip), vehicle: carboxymethylcellulose (CMC)) was 47 % of control.

In the case of CC(=O)NCCSC(=O)C(=O)SCCNC(C)=O, the T/C [10] is reported as 111 % of control, the T/C [6] is reported as 104 % of control and the T/C [7] is reported as 110 % of control.

With O=c1cnn(C2OC(CO)C(O)C2O)c(=O)[nH]1 (configuration not stated) the T/C [6] was 80 % of control, the T/C [7] was 73 % of control and the T/C [8] was 49 % of control. The T/C [9] was 17 % of control.

N#CCSc1ncnc2nc[nH]c12 was tested, and the T/C (dose: 7.5 mg/kg/injection, schedule: Q01DX010 (ip), vehicle: saline) was 87 % of control, the T/C (dose: 15.0 mg/kg/injection, schedule: Q01DX010 (ip), vehicle: saline) was 56 % of control and the T/C (dose: 30.0 mg/kg/injection, schedule: Q01DX010 (ip), vehicle: saline) was 97 % of control and 109 % of control. For the same compound, the T/C (dose: 60.0 mg/kg/injection, schedule: Q01DX010 (ip), vehicle: saline) was 97 % of control and 108 % of control.

In the case of NC(N)=NCCCC(N)C(=O)NCCCCCCNCCCCCCNC(=O)C(N)CCCN=C(N)N (configuration not stated), the T/C [4] is reported as 102 % of control, the T/C [13] is reported as 105 % of control and the T/C [11] is reported as 84 % of control. For the same compound, the T/C [12] was 116 % of control.

CCC1=C(c2cc(Cl)c3ccccc3c2OCC(=O)O)OC(CC)(C(=O)c2cc(Cl)c3ccccc3c2OCC(=O)O)CC1 (configuration not stated) was tested, and the T/C (dose: 240.0 mg/kg/injection, schedule: Q01DX010 (ip), vehicle: steriod suspending solution) was 74 % of control and the T/C (dose: 480.0 mg/kg/injection, schedule: Q01DX010 (ip), vehicle: steriod suspending solution) was 80 % of control.

O=C(O)C(=O)O.[U] was tested, and the T/C (dose: 1.56 mg/kg/injection, schedule: Q01DX010 (ip), vehicle: saline) was 64 % of control, the T/C (dose: 3.13 mg/kg/injection, schedule: Q01DX010 (ip), vehicle: saline) was 45 % of control and the T/C (dose: 6.25 mg/kg/injection, schedule: Q01DX010 (ip), vehicle: saline) was 28 % of control. For the same compound, the T/C (dose: 12.5 mg/kg/injection, schedule: Q01DX010 (ip), vehicle: saline) was 30 % of control.
